Structures are written as SMILES.

Here are results for two compounds from patent publication US9981972B2, “N-hydroxy bicyclic hydantoin carbamates as tools for identification of serine hydrolase targets” (ABIDE THERAPEUTICS, INC., priority 2014, dated 2018).

Assay [1] addresses T1, ABHD4 (Mus musculus, UniProt Q8VD66).
T1 construct: from tissue; host or cells: tissues of C57BL6 mice
Nature of the assay: Inhibition by gel-based competitive ABPP in vivo. The conditions noted are these: 1-40 mg/kg i.p., 4 h, any tissue examined. The protocol: Compound 26, Compound 34, and Compound 1 were administered across a dose range of 1-40 mg/kg to C57BL6 mice by intraperitoneal injection, and, after 4 hours, animals were sacrificed and tissues harvested for analysis by gel-based ABPP using the FP-Rh probe and the Compound 39 probe.

The target of assay [2] is T2, MAGL (Homo sapiens, UniProt Q99685).
T2 construct: endogenous in cells; host or cells: HeLa
T2 sequence (Q99685 whole entry): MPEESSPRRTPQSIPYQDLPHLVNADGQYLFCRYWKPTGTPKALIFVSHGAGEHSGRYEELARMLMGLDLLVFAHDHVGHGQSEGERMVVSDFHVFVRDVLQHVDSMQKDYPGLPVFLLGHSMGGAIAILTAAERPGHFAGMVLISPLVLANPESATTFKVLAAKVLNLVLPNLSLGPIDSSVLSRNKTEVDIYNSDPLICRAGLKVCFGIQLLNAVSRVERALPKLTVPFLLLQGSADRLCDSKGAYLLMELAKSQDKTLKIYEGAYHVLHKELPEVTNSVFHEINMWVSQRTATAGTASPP
Nature of the assay: Selectivity analysis by ABPP-SILAC, HeLa cells in situ, FP-biotin. Format: cell-based. To be noted: 2 h in situ. From the text:
(§1) Competitive ABPP-SILAC (Adibekian, A., et al. J Am Chem Soc, 2012. 134(25): p. 10345-8) combined competitive ABPP (Leung, D., et al. Nat Biotechnol, 2003. 21(6): p. 687-91) with stable isotope labeling of cells (SILAC) (Ong, S. E., et al. Mol Cell Proteomics, 2002. 1(5): p. 376-86), and allowed for precise quantitation of enzyme inhibition by calculating the isotopic ratios of peptides from inhibitor-treated and control cells.
(§2) Assay Overview: The purpose of this assay was to determine the selectivity profile of powder samples of test compounds using stable isotope labeling with amino acids in cell culture (SILAC) ABPP. In this assay, cultured HeLa cells were metabolically labeled with light or heavy amino acids. Light and heavy cells were treated with inhibitor and DMSO, respectively, in situ. Cells were harvested, and proteome fractions were isolated and reacted with the serine-hydrolase-specific activity-based affinity probe fluorophosphonate-biotin (FP-biotin). Light and heavy samples were combined in a 1:1 (w/w) ratio. Biotinylated proteins were enriched, trypsinized, and analyzed by LC/LC-MS/MS (MudPIT) Inhibition of target and anti-target activity was quantified by comparing intensities of light and heavy peptide peaks. […] Proteins not targeted by inhibitors were expected to have a ratio close to 1.
(§3) Sample Preparation. HeLa cells were initially grown for at least eight passages in either light or heavy SILAC DMEM medium supplemented with 10% dialyzed FCS and 1× PenStrep Glutamine in a humidified incubator (37° C., 5% CO2). Light medium was supplemented with 100 μg/mL L-arginine (Sigma) and 100 μg/mL L-lysine (Sigma). Heavy medium was supplemented with 100 μg/mL [13C615N4]-L-Arginine (Isotek) and 100 μg/mL [13C615N2]-L-Lysine (Isotek). […]
(§4) LC-MS/MS analysis. Samples were analyzed by multidimensional liquid chromatography tandem mass spectrometry (MudPIT) using an Agilent 1200-series quaternary pump and Thermo Scientific LTQ Orbitrap Velos ion trap mass spectrometer. […]

In assay [3] the test system is human LYPLA1/2. The description is as above. The assay is classed as cell-based. To be noted: 1 μM, 2 h in situ.
Excerpt: as §1, §2, §3, §4

Assay [4] concerns the target T3, ABHD6 (Homo sapiens, UniProt Q9BV23).
T3 construct: endogenous in cells; host or cells: HeLa
Described as above. Format: cell-based. To be noted: 2 h in situ, read-out: inhibition of anti-target ABHD6 (ABPP-SILAC).
Excerpt: as §1, §2, §3, §4

T3 sequence (Q9BV23 whole entry): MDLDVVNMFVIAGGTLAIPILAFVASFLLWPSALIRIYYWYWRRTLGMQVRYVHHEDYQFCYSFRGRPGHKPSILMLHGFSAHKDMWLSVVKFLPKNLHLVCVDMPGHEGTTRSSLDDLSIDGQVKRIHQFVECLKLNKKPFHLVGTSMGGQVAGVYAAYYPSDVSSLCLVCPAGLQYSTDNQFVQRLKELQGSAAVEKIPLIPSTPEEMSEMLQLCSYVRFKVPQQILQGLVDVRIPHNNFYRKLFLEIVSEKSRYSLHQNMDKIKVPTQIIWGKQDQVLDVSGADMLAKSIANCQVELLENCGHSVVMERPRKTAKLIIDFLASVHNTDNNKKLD
T1 sequence (Q8VD66 whole entry): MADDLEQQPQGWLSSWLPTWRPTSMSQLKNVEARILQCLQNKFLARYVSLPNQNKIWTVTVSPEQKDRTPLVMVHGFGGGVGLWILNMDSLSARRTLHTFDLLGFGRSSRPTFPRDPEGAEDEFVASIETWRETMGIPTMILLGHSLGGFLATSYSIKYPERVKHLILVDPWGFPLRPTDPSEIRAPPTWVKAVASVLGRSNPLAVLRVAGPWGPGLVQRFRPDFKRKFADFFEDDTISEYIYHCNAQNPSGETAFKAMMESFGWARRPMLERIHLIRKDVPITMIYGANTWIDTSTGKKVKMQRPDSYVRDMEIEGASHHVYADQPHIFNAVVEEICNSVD

In the case of `O=C(ON1C(=O)C2CN(Cc3ccc(Oc4ccccc4)cc3)CCN2C1=O)N1CCOCC1` (stereo not shown) [Compound 34, 1,3-dioxo-7-(4-phenoxybenzyl)hexahydroimidazo[1,5-a]pyrazin-2(3H)-yl morpholine-4-carboxylate], the “blockade of ABHD4 in vivo” value in assay [1] is recorded as “did not block the activity of ABHD4 in any tissue examined”.

With `O=C(ON1C(=O)C2CN(C(=O)N3CCOCC3)CCN2C1=O)N1CCC(CCc2ccc(Cl)cc2)CC1` (stereo not shown) [Compound 1, 7-(morpholine-4-carbonyl)-1,3-dioxohexahydroimidazo[1,5-a]pyrazin-2(3H)-yl 4-(4-chloro-phenethyl)piperidine-1-carboxylate], the inhibition at 1 µM in assay [2] was about 40%; in assay [4] it was over 90%. Also, the “inhibition of human LYPLA1/2 (ABPP-SILAC)” value in assay [3] is given as over 90%.

In general, inhibition refers to the relative decrease from the control value, in per cent.
